From PubChem BioAssay (NCI)
Where “and” joins values, the source holds several entries; their conditions need not be identical. Equal entries are not always repeated.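 Grown in 96-well plates, cells were treated for 48 hours with each compound at five concentrations. Insufficient inhibition: endpoint recorded as highest concentration tested. GI50 marks 50% less growth. The concentration for full growth arrest is given as TGI.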

How the values were obtained:
Assay in all cases: NCI anticancer screen, dose series, 48 h
RXF 393 renal = tested on: RXF 393 renal
HCT-116 colon = tested on: HCT-116 colon
U251 CNS = tested on: U251 CNS
TK-10 renal = tested on: TK-10 renal
EKVX NSCLC = tested on: EKVX NSCLC
SNB-19 CNS = tested on: SNB-19 CNS
PC-3 prostate = tested on: PC-3 prostate
786-0 renal = tested on: 786-0 renal
DU-145 prostate = tested on: DU-145 prostate
SF-295 CNS = tested on: SF-295 CNS

Structure (SMILES)	TGI (RXF 393 renal)	TGI (HCT-116 colon) [µM]	TGI (U251 CNS) [µM]	TGI (TK-10 renal) [µM]	TGI (EKVX NSCLC) [µM]	TGI (SNB-19 CNS) [µM]	TGI (PC-3 prostate) [µM]	TGI (786-0 renal) [µM]	TGI (DU-145 prostate) [µM]	TGI (SF-295 CNS) [µM]	GI50 (PC-3 prostate)
N#Cc1c(-c2ccccc2)c2c([nH]c1=O)-c1cc([N+](=O)[O-])ccc1CCC2	42.3 µM	> 100	> 100	> 100	88.5	> 100	> 100	> 100	71.2	63.1	
O=C(CC(C(=O)c1ccco1)c1ccco1)c1ccco1 (configuration not stated)	> 100 µM	> 100	> 100	> 100	> 100			> 100	> 100	> 100	
S=C1NC2=C(CSC/C2=C\c2ccccc2)C(c2ccccc2)N1 (configuration not stated)	> 100 µM	> 100	> 100	> 100	> 100	> 100	> 100	> 100	> 100	89.1	
C=C1C(=O)C23C(O)CC4C5(C)CCCC4(C(O)OC5)C2C(OC(C)=O)CC1C3O (configuration not stated)		18.5	30.7	23.1	27.7	28.1		19.2		41.4	
C=CCN1C(=O)/C(=C/c2ccc(C)cc2)N=C1SC1OC(COC(C)=O)C(OC(C)=O)C(OC(C)=O)C1OC(C)=O (configuration not stated)	> 39.5 µM and 61.6 µM	> 100	> 100	> 100	> 100	> 100	> 100	> 100	> 100	> 100	> 100 µM and 34.2 µM
CC(C)C(N)C(=O)NC(CCC(=O)NCCCCC(N)C(=O)NCCCNc1ccc([N+](=O)[O-])c2[nH]c3ccccc3c(=O)c12)C(N)=O (configuration not stated)	46.5 µM	> 100	> 100	> 100	> 100	> 100	> 100	> 100	> 100	> 100	
O=C(O)CCCCCCCCC(=O)O	> 500 µM	> 500	> 500		> 500	> 79.3				> 500	
Cc1c(-c2ccccc2)[nH]n(C2=NCCN2)c1=O	> 100 µM	> 100	> 100	> 100	> 100	> 100	> 100	> 100		> 100	
CC1=NNC(=O)C1C1CC(c2c[nH]c3ccccc23)=NN=C1Cl (configuration not stated)	> 100 µM	> 100	> 100	> 100	> 100	> 100	> 100	> 100	> 100	> 100	
O=C(NN1C(=O)CSC1c1cccc(F)c1)c1ccncc1 (configuration not stated)	> 100 µM		> 100	> 100	> 100	> 100				> 100	
c1ccc([P+](CCCCCCCC[P+](c2ccccc2)(c2ccccc2)c2ccccc2)(c2ccccc2)c2ccccc2)cc1	> 100 µM	> 100	> 100	> 73.7	> 100	> 100	> 30.8	> 100	> 100	> 72.9	
